Structures are written as SMILES. Values joined by “and” are separate entries in the source; they are usually repeats but may differ in a detail not shown here. Identical values can stand only once. Like-named read-outs stand apart in the source and are kept apart here.

The target in series [1] is T1, recombinant rat FAAH (rFAAH) (Rattus norvegicus, UniProt P97612).
T1 construct: expressed in transfected cells; host or cells: HEK293-rFAAH cells (homogenate supernatant)
T1 sequence (P97612 1-579): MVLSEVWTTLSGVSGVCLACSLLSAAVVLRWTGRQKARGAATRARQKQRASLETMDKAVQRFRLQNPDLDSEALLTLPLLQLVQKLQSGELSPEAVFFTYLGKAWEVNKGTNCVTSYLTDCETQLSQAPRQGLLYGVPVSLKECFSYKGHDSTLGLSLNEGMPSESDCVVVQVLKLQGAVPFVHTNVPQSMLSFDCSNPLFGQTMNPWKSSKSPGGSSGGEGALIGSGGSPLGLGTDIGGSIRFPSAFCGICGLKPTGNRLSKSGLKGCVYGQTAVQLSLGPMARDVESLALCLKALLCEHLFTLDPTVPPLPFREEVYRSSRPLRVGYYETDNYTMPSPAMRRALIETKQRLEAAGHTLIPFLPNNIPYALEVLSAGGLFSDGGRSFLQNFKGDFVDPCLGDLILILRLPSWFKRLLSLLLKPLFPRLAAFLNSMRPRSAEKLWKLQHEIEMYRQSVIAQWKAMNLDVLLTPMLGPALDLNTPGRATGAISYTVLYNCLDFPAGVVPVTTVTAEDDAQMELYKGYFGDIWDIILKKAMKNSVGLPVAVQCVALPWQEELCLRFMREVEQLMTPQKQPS
Description: FAAH enzyme activity assay (AEA hydrolysis, HPLC-MS/MS). To be noted: for FAAH inhibitory activity (in words): rFAAH enzyme assay; for fold decrease in FAAH inhibitory potency vs. compound 1: compared with parent compound 1. The series is classed as biochemical. How it is done:
The substituted 2,4-dioxopyrimidine-1-carboxamides and the related analogues described above were subjected to in vitro biological evaluation toward recombinant rat FAAH derived from HEK293-rFAAH cell. Enzyme assays were performed at 37 °C by incubating 30 µg of rFAAH protein with 25 μM anandamide as substrate in Tris-HCl buffer containing fatty acid-free BSA (0.05%). When the reactions were terminated, 1 nmol heptadecanoic acid (17:0 FFA) was added as an internal standard. […] The hydrolyzate of AEA (arachidonic acid), together with heptadecanoic acid was detected in HPLC/MS/MS to estimate the potency of rFAAH inhibition according to the methods previously described.
The inhibition effects of uracil derivatives toward recombinant rat FAAH (rFAAH) were assessed by enzyme activity assay. HEK293-rFAAH cells were harvested, washed with PBS, sonicated in 20 mM Tris-HCl (pH 7.5) containing 0.32 M sucrose, and centrifuged at 800× g for 15 min at 4 °C. The supernatants were collected and protein concentrations were measured by BCA protein assay kit (Pierce, Shanghai, China). FAAH proteins (30 μg) were incubated at 37 °C for 30 min in Tris buffer (50 mM, pH = 8.0) containing fatty acid-free BSA (0.05%) and 25 μM AEA (Sigma-Aldrich, Shanghai, China) as substrate. The above reactions were stopped by adding 200 μL methanol containing 1 nmol heptadecanoic acid (17:0 FFA) as internal standard. The reaction mixture was extracted with 4 mL chloroform and then vortex for 1 min. Lipid layer was separated by centrifugation at 3000× g for 10 min and then transferred to a clean 10 mL V-bottom glass tube and dried under nitrogen (N2) flow. After redissolved with 1 mL CHCl3, the lipid solution went through the solid-phase extraction, and was eluted by methanol/chloroform (v/v, 1/9). The elution containing FAEs and FFAs was dried under N2, and reconstituted in 100 μL methanol for HPLC-MS/MS analysis.
Samples were detected by an ABI 3200 Q-Trap mass spectrometer (Applied Biosystems/MDS Sciex) equipped with 1100-LC system (Agilent, Shanghai, China). The mobile phase for FFAs detection was consisted of MeOH and ultra-pure H2O (pH = 7.4, each containing 0.25% acetic acid and 5 mmol/L ammonium acetate), and the elution condition was 95% methanol keeping for 3 min at a flow rate of 1.0 mL·min^−^1. The column temperature was kept at 40 °C. Ion detection was monitored by ESI negative mode. The molecular ions were monitored at m/z 303 for AA, and m/z 269 for C17:0 FFA. Inhibition curves and IC50 values of each compounds was calculated by GraphPad Prism (version 5.01, GraphPad Software Inc., San Diego, CA, USA).

Setting [2] is: rFAAH protein 30 μg from HEK293-rFAAH cells, 25 μM anandamide, 37 °C, 30 min, Tris buffer pH 8.0, read-out: IC50 of FAAH Inhibition.
The mark [3] stands for this setting: as stated in abstract, read-out: IC50 (FAAH inhibition).

Turning to `CCCCCCNC(=O)n1ccc(=O)[nH]c1=O` [Compound 1, N-Hexyl-2,4-dioxo-pyrimidine-1-carboxamide], in series [1] (setting [2]), the IC50 turned out to be 110 ± 30 nM.
With `CCCCCCNC(=O)N1CCC(=O)NC1=O` [Compound 2, N-Hexyl-2,4-dioxotetrahydropyrimidine-1-carboxamide], the “FAAH inhibitory activity (in words)” value in series [1] is on record as “no inhibitory activity”. Besides, in series [1] (setting [2]), the half-inhibitory concentration (IC50) is more than 10000 nM.
Regarding `CCCCCCNC(=O)N1CCCNC1=O` [Compound 3, N-Hexyl-2-oxotetrahydropyrimidine-1-carboxamide], in series [1], the “FAAH inhibitory activity (in words)” value is on record as “loss of FAAH inhibitory activities”. Further, the IC50 in series [1] (setting [2]) was more than 10000 nM.
With `CCCCCCNC(=O)n1ccc(=O)n(C)c1=O` [Compound 4, N-Hexyl-3-methyl-2,4-dioxopyrimidine-1-carboxamide], in series [1], the “fold decrease in FAAH inhibitory potency vs. compound 1” value was 8- to 10 fold. Besides, the half-maximal inhibitory concentration (IC50) in series [1] (setting [2]) was 860 ± 80 nM.
The like results for `CCCCCCNC(=O)n1cc(C)c(=O)[nH]c1=O` [Compound 5, N-Hexyl-5-methyl-2,4-dioxopyrimidine-1-carboxamide] were, in that order, 2- to 3 fold and 250 ± 30 nM.
For the molecule `CCCCCCNC(=O)n1c(C)cc(=O)[nH]c1=O` [Compound 6, N-Hexyl-6-methyl-2,4-dioxopyrimidine-1-carboxamide], in series [1], the “fold decrease in FAAH inhibitory potency vs. compound 1” value was 8- to 10 fold. Also, the IC50 in series [1] (setting [2]) was 1270 ± 210 nM.
The like results for `O=C(NCCc1ccccc1)n1ccc(=O)[nH]c1=O` [Compound 7, N-(2-Phenylethyl)-2,4-dioxopyrimidine-1-carboxamide] were, in that order, 3 fold and 300 ± 70 nM.
With `Cc1cn(C(=O)NCCc2ccccc2)c(=O)[nH]c1=O` [Compound 8, 5-Methyl-N-(2-phenylethyl)-2,4-dioxopyrimidine-1-carboxamide], in series [1] (setting [2]), the concentration for half-maximal inhibition (IC50) stood at 1070 ± 140 nM.
Regarding `COc1cn(C(=O)NCCc2ccccc2)c(=O)[nH]c1=O` [Compound 9, 5-Methoxy-N-(2-phenylethyl)-2,4-dioxopyrimidine-1-carboxamide], the concentration for half-maximal inhibition (IC50) in series [1] (setting [2]) was 530 nM and 531 nM.
Turning to `O=C(NCCc1ccccc1)n1cc(F)c(=O)[nH]c1=O` [Compound 10, 5-Fluoro-N-(2-phenylethyl)-2,4-dioxopyrimidine-1-carboxamide], the IC50 in series [1] (setting [2]) stood at 98 ± 10 nM.
On to `O=C(NCCc1ccccc1)n1cc(C(F)(F)F)c(=O)[nH]c1=O` [Compound 11, N-(2-Phenylethyl)-5-trifluoromethyl-2,4-dioxopyrimidine-1-carboxamide], for which the concentration for half-maximal inhibition (IC50) in series [1] (setting [3]) was 21 nM; in series [1] (setting [2]), 21 ± 4 nM.
`O=C(NCc1ccc2ccccc2c1)n1ccc(=O)[nH]c1=O` [Compound 12] returned a melting point of 84 to 84.6 °C.
For the molecule `O=C(NCc1ccc(-c2ccccc2)cc1)n1ccc(=O)[nH]c1=O` [Compound 14, N-[2-(4-Biphenyl)methyl]-2,4-dioxopyrimidine-1-carboxamide], the IC50 in series [1] (setting [3]) was determined as 53 nM; in series [1] (setting [2]) it was 53 ± 6 nM.
As to `O=C(NCc1ccc(-c2ccccc2)cc1)n1cc(F)c(=O)[nH]c1=O` [Compound 15, N-[2-(4-biphenyl)methyl]-5-fluoro-2,4-dioxo-pyrimidine-1-carboxamide], the “fold less potent vs. compound 14” value in series [1] (compared with compound 14) is 2 fold. Further, the IC50 in series [1] (setting [2]) was found to be 100 ± 10 nM.
With `O=C(Nc1cn(C(=O)NCCc2ccccc2)c(=O)[nH]c1=O)OCc1ccccc1` [Compound 16, Benzyl (2,4-dioxo-1-{[(2-phenylethyl)amino]carbonyl}-1,2,3,4-tetrahydro-5-pyrimidinyl)carbamate (2H)-carboxamide], the “increase of FAAH inhibitory potency vs. compound 17” value in series [1] (compared with compound 17) was “about 10 times”. In addition, the 50% inhibitory concentration (IC50) in series [1] (setting [2]) turned out to be 120 ± 30 nM.
For `Nc1cn(C(=O)NCCc2ccccc2)c(=O)[nH]c1=O` [Compound 17, 5-Amino-N-(2-phenylethyl)-2,4-dioxopyrimidine-1-carboxamide], the IC50 in series [1] (setting [2]) came out at 1330 ± 130 nM.
Regarding `O=C(NCCc1ccccc1)n1cc(O)c(=O)[nH]c1=O` [Compound 18, 5-hydroxy-N-(2-phenylethyl)-2,4-dioxopyrimidine-1-carboxamide], the IC50 in series [1] (setting [2]) is 540 ± 70 nM.
In the case of `CCCCCCCn1ccc(=O)[nH]c1=O` [Compound 19, 1-Heptyl-2,4-dioxopyrimidine], the “FAAH inhibitory activity (in words)” value in series [1] is given as “not inhibited at all”. Also, the IC50 in series [1] (setting [2]) is more than 100000 nM.
As to `CCCCCCCn1cc(F)c(=O)[nH]c1=O` [Compound 20, 5-Fluoro-1-heptyl-2,4-dioxopyrimidine], the “FAAH inhibitory activity (in words)” value in series [1] is “not inhibited at all”. In series [1] (setting [2]), the half-inhibitory concentration (IC50) is more than 100000 nM.
Take `CCCCCCNC(=O)Cn1cc(F)c(=O)[nH]c1=O` [Compound 21, 2-[5-Fluoro-2,4-dioxopyrimidinyl]-N-hexylacetamide]: in series [1], the “FAAH inhibitory activity (in words)” value is on record as “total loss of the FAAH inhibitory activity”. Besides, the IC50 in series [1] (setting [2]) is more than 100000 nM.

These data come from article PMC6274076, “Discovery of Uracil Derivatives as Potent Inhibitors of Fatty Acid Amide Hydrolase” (Molecules, 2016).
